Measurements published in EP3057950B1, “PHENYL LINKED QUINOLINYL MODULATORS OF ROR-GAMMA-T” (Janssen Pharmaceutica NV, priority 2013, dated 2015).
Several values for one entry are separate records, joined by “and”; a condition that tells them apart may be missing. Equal values may be shown once. Where a name gives a salt, the structure may show the parent alone.

Experiments:
[1] = target: T1, wild type human RORγt LBD (Homo sapiens, UniProt P51449); assay: RORγt Reporter Assay (GAL4-RORγt LBD luciferase in HEK293T cells); assay type: cell-based; settings: HEK293T cells; for IC50: compounds for 24 hours, read-out: RORγt reporter Assay, IC50; for inhibition at 6 µM: HEK-293T, read-out: RORγt reporter Assay, % inhibition @ 6 µM, @ 6 µM
T1 construct: expressed in transfected cells; host or cells: HEK293T
T1 sequence (P51449 269-508 limits assumed): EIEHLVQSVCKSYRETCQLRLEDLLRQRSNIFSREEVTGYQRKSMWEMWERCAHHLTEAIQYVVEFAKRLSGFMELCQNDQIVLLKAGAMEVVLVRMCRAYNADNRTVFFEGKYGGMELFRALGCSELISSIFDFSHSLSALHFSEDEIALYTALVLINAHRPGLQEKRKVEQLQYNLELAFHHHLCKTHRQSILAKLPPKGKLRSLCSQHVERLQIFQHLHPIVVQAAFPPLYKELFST
From the text: A reporter assay was used to test functional activity of RORγt modulatory compounds on transcriptional activation driven by the RORγt LBD. Cells used in the assay were co-transfected with two constructs. The first construct, pBIND-RORγt LBD, contained the wild type human RORγt LBD fused to the DNA binding domain of the GAL4 protein. The second construct, pGL4.31 (Promega Cat no. C935A), contained multiple GAL4 responsive DNA elements upstream of firefly luciferase. […] The mutant construct was called pBIND-RORγt-AF2.
The pBIND vector contains the GAL4 DNA Binding Domain (GAL4 DBD) and the renilla luciferase gene under control of the SV40 promoter. Renilla luciferase expression serves as a control for transfection efficiency and cell viability.
The reporter assay was performed by transiently transfecting HEK293T cells with 5 µg of pBIND-RORγt LBD or pBIND-RORγt LBD-AF2 and 5 µg pGL4.31 (Promega Cat no. C935A) using Fugene 6 (Invitrogen Cat no. E2691) at a 1:6 ratio of DNA: Fugene 6 in a T-75 flask in which cells were at least 80% confluent. Twenty four hours after bulk transfection, cells were plated into 96-well plates at 50,000 cells/well in phenol-red free DMEM containing 5% Lipid Reduced FCS and Pen/Strep. Six hours after plating, cells were treated with compounds for 24 hours. Media was removed and cells were lysed with 50 µL 1x Glo Lysis Buffer (Promega). Dual Glo Luciferase Reagent (50 µL/well) was then added and firefly luciferase luminescence was read on an Envision after a ten minute incubation. Finally, Stop and Glo reagent (50 µL/well) was added and renilla luciferase luminescence was read on an Envision instrument after a ten minute incubation. To calculate the effect of compounds on RORγt activity, the ratio of firefly to renilla luciferase was determined and plotted against compound concentration. Agonist compounds increase RORγt-driven luciferase expression, and antagonist or inverse agonist compounds decrease luciferase expression.

[2] = target: T2, wild type human RORγt ligand binding domain (RORγt LBD) (Homo sapiens, UniProt P51449); assay: RORγt ThermoFluor® Assay (thermal shift, binding affinity); settings: pH 7.0, estimated from concentration response curves
T2 construct: His-tag (N); TurboTEV protease cleavage site (ENLYFQG) (N); made in house; host or cells: E. coli (pHIS1, modified pET expression vector)
T2 sequence (P51449 269-508 limits assumed): T1 sequence (P51449 269-508 limits assumed)
Method: This approach is applicable to a wide variety of systems, and rigorous in theoretical interpretation through quantitation of equilibrium binding constants (KD).
The shift in the melting point described as a ΔTm is proportional to the concentration and affinity of the ligand.
Protein and compound solutions are dispensed into black 384-well polypropylene PCR microplates (Abgene) and overlayed with silicone oil (1 µL, Fluka, type DC 200) to prevent evaporation.
Bar-coded assay plates are robotically loaded onto a thermostatically controlled PCR-type thermal block and then heated at a typical ramp-rate of 1 °C/min for all experiments. Fluorescence was measured by continuous illumination with UV light (Hamamatsu LC6) supplied via fiber optic and filtered through a band-pass filter (380-400 nm; >6 OD cutoff). Fluorescence emission of the entire 384-well plate was detected by measuring light intensity using a CCD camera (Sensys, Roper Scientific) filtered to detect 500 ± 25 nm, resulting in simultaneous and independent readings of all 384 wells. Images were collected at each temperature, and the sum of the pixel intensity in a given area of the assay plate was recorded versus temperature. Reference wells contained RORγt without compounds, and the assay conditions were as follows: • 0.065 mg/mL RORγt • 60 µM 1,8-ANS • 100 mM Hepes, pH 7.0 • 10 mM NaCl • 2.5 mM GSH • 0.002% Tween-20
Project compounds were arranged in a pre-dosed mother plate (Greiner Bio-one) wherein compounds are serially diluted in 100% DMSO by 1:2 from a high concentration of 10 mM over 12 columns within a series (column 12 is a reference well containing DMSO, no compound). The compounds were robotically dispensed directly into assay plates (1x = 46 nL) using a Hummingbird capillary liquid handling instrument (Digilab). Following compound dispense, protein and dye in buffer was added to achieve the final assay volume of 3 µL, followed by 1 µL of silicone oil.

SMILES | IC50 [1] | inhibition at 6 µM [1] | Kd [2]
Cn1cncc1C(O)(c1ccc(Cl)cc1)c1ccc2nc(Cl)c(-c3ccccn3)c(Cl)c2c1 (stereo not drawn) [Example 5, (4-Chlorophenyl)(2,4-dichloro-3-(pyridin-2-yl)quinolin-6-yl)(1-methyl-1H-imidazol-5-yl)methanol•TFA] | 1700 nM | 87% | 620 nM
Cn1cncc1C(O)(c1ccc(Cl)cc1)c1ccc2nc(Cl)c(-c3cccnc3)c(Cl)c2c1 (stereo not drawn) [Example 6, (4-Chlorophenyl)(2,4-dichloro-3-(pyridin-3-yl)quinolin-6-yl)(0-methyl-1H-imidazol-5-yl)methanol•TFA] | 1900 nM | 92% | 940 nM
COc1nc2ccc(C(O)(c3ccc(C(F)(F)F)nc3)c3cncn3C)cc2c(Cl)c1-c1cnn(C)c1 (stereo not drawn) [Example 8, [4-Chloro-2-methoxy-3-(1-methyl-1H-pyrazol-4-yl)quinolin-6-yl](1-methyl-1H-imidazol-5-yl)[6-(trifluoromethyl)pyridin-3-yl]methanol•TFA] | 890 nM | 87% | 270 nM
COc1nc2ccc(C(O)(c3ccc(C(F)(F)F)nc3)c3cncn3C)cc2c(Cl)c1-c1cccc(S(C)(=O)=O)c1 (stereo not drawn) [Example 11, {4-Chloro-2-methoxy-3-[3-(methylsuffonyl)phenyl]quinolin-6-yl)(1-methyl-1H-imidazol-5-yl)[6-(trifluoromethyl)pyridin-3-yl]methanol•TFA] | > 6000 nM | 32% | 640 nM
COc1nc2ccc(C(O)(c3ccc(C(F)(F)F)nc3)c3cncn3C)cc2c(Cl)c1-c1cccc(NS(C)(=O)=O)c1 (stereo not drawn) [Example 12] | ~2000 nM | 90% | 650 nM
COc1nc2ccc(C(O)(c3ccc(C(F)(F)F)nc3)c3cncn3C)cc2c(Cl)c1-c1cncc(S(C)(=O)=O)c1 (stereo not drawn) [Example 13, {4-Chloro-2-methoxy-3-[5-(methylsuflonyl)pyridin-3-yl]quinolin-6-yl)(1-methyl-1H-imidazol-5-yl)[6-(trifluoromethyl)pyridin-3-yl]methanol•TFA] | > 6000 nM | -52% | 2000 nM
COc1nc2ccc(C(O)(c3ccc(C(F)(F)F)nc3)c3cncn3C)cc2c(Cl)c1-c1ccc(Cl)s1 (stereo not drawn) [Example 14a, [4-Chloro-3-(5-chlorothiophen-2-yl)-2-methoxyquinofin-6-yl](1-methyl-1H-imidazol-5-yl)[6-(trifluoromethyl)pyridin-3-yl]methanol•TFA] | 1100 nM | 55% | 6.7 nM
COc1ncc(-c2c(OC)nc3ccc(C(O)(c4ccc(C(F)(F)F)nc4)c4cncn4C)cc3c2Cl)cn1 (stereo not drawn) [Example 15, [4-Chloro-2-methoxy-3-(2-methoxypyrimidin-5-yl)quinolin-6-yl](1-methyl-1H-imidazol-5-yl)[6-(trifluoromethyl)pyridin-3-yl]methanol•TFA] | > 6000 nM | -29% | 21 nM
COc1nc2ccc(C(O)(c3ccc(C(F)(F)F)nc3)c3cncn3C)cc2c(Cl)c1-c1ccc(NS(C)(=O)=O)cc1 (stereo not drawn) [Example 17, N-[4-(4-Chloro-6-{hydroxy(1-methyl-1H-imidazol-5-yl)[6-(trifluoromethyl)pyridin-3-yl]methyl}-2-methoxyquinolin-3-yl)phenyl]methamesulfonamide•TFA] | 530 nM | 87% | 26 nM
Cn1cncc1C(O)(c1ccc(C#N)cc1)c1ccc2nc(C(F)(F)F)c(-c3ccccc3)c(C#N)c2c1 (stereo not drawn) [Example 28, 6-((4-Cyanophenyl)(hydroxy)(1-methyl-1H-imidazol-5-yl)methyl)-3-phenyl-2-(trifluoromethyl)quinoline-4-carbonitrile•TFA] | 24 nM and ~40 nM | 96% | 46 nM
CC(=O)N1CCC(C(O)(c2cccnc2)c2ccc3nc(C(F)(F)F)c(-c4ccccc4)c(Cl)c3c2)CC1 (stereo not drawn) [Example 29, 1-(4-((4-Chloro-3-phenyl-2-(trifluoromethyl)quinolin-6-yl)(hydroxy)(pyridin-3-yl)methyl)piperidin-1-yl)ethanone•TFA] | 85 nM | 97% | 26 nM
COc1c(-c2ccccc2)c(C(F)(F)F)nc2ccc(C(O)(c3ccc(Cl)cc3)c3cncn3C)cc12 (stereo not drawn) [Example 33a, (4-Chlorophenyl)(4-methoxy-3-phenyl-2-(trifluoromethyl)quinolin-6-yl)(1-methyl-1H-imidazol-5-yl)methanol•TFA] | 650 nM | 98% | 160 nM
COc1nc2ccc(C(O)(c3sc(C)nc3C)c3cnnn3C)cc2c(Cl)c1-c1ccccc1 (stereo not drawn) [Example 35, (4-Chloro-2-methoxy-3-phenylquinolin-6-yl)(2,4-dimethylthiazol-5-yl)(1-methyl-1H-1,2,3-triazol-5-yl)methnol•TFA] | 160 nM | 101% | 18 nM
COc1c(-c2ccccc2)c(Cl)nc2ccc(C(O)(c3sc(C)nc3C)c3cnnn3C)cc12 (stereo not drawn) [Example 36] | 11 nM and ~40 nM | 97% | 0.89 nM
COc1nc2ccc(C(O)(c3sc(C)nc3C)c3cncn3C)cc2c(Cl)c1-c1ccccc1 (stereo not drawn) [Example 37, (4-Chloro-2-methoxy-3-phenylquinolin-6-yl)(2,4-dimethylthiazol-5-yl)(1-methyl-1H-imidazol-5-yl)methanol•TFA] | 260 nM | 90% | 7.2 nM
COc1c(-c2ccccc2)c(Cl)nc2ccc(C(O)(c3sc(C)nc3C)c3cncn3C)cc12 (stereo not drawn) [Example 38, (2-Chloro-4-methoxy-3-phenylquinolin-6-yl)(2,4-dimethylthiazol-5-yl)(1-methyl-1H-imidazol-5-yl)methanol•TFA] | 30 nM | 93% | 0.26 nM
Cc1ncc(C(O)(c2ccc3nc(Cl)c(-c4ccccc4)c(Cl)c3c2)c2cnnn2C)n1C (stereo not drawn) [Example 39, (2,4-Dichloro-3-phenylquinolin-6-yl)(1,2-dhnethyl-1H-imidazol-5-yl)(1-methyl-1H-1,2,3-triazol-5-yl)methanol] | 34 nM | 103% | 5.2 nM
COc1c(-c2ccccc2)c(Cl)nc2ccc(C(O)(c3cnnn3C)c3cnc(C)n3C)cc12 (stereo not drawn) [Example 40a, (2-Chloro-4-metboxy-3-phenylquinolin-6-yl)(1,2-dimethyl-1H-imidazol-5-yl)(1-methyl-1H-1,2,3-triazol-5-yl)methanol•TFA] | 23 nM | 104% | 1.5 nM
COc1nc2ccc(C(O)(c3cnnn3C)c3cnc(C)n3C)cc2c(Cl)c1-c1ccccc1 (stereo not drawn) [Example 41a, (4-Chloro-2-methoxy-3-phenylquinolin-6-yl)(1,2-dimethyl-1H-imidazol-5-yl)(1-methyl-1H-1,2,3-triazol-5-yl)methanol•TFA] | 320 nM | 98% | 89 nM
